pIC50: −log10 of the molar value.
test system: TNFα release from human peripheral blood mononuclear cells; assay: Inhibition of LPS-stimulated TNFα release from human peripheral blood mononuclear cells (TNFα screen); format: cell-based; conditions: human PBMC stimulated with lipopolysaccharide, 18 hours incubation, TNFα in supernatant by ELISA
Protocol: Venous blood is collected from healthy volunteers and the mononuclear cells purified by centrifugation through Histopaque (Ficoll) cushions. TNFα production from these cells is stimulated by addition of lipopolysaccharide. After 18 hours incubation in the presence of LPS, the cell supernatant is removed and the concentration of TNFα in the supernatant determined by ELISA. Addition of PDE4 inhibitors reduces the amount of TNFα produced. An IC50 is determined which is equal to the concentration of compound that gives 50% inhibition of TNFα production as compared to the LPS stimulated control wells.

| Molecule | pIC50 |
| --- | --- |
| Syn-5-fluoro-N-[4-(5-chloro-2-hydroxy-benzoylamino)-cyclohexyl]-2-(3-methylsulfanyl-phenoxy)-nicotinamide [Example 5] | 9.82 |
| Syn-5-fluoro-N-[4-(2-hydroxy-4-methyl-benzoylamino)-cyclohexyl]-2-(3-methylsulfanyl-phenoxy)-nicotinamide [Example 10] | 10.30 |
| Syn-5-fluoro-N-{4-[(1H-imidazole-5-carbonyl)-amino]-cyclohexyl}-2-(3-methylsulfanyl-phenoxy)-nicotinamide [Example 18] | 9.22 |
| CSc1cccc(Oc2ncc(F)cc2C(=O)N[C@H]2CC[C@@H](NC(=O)c3cc(C)ccc3O)CC2)c1 [Example 1, Syn-5-Fluoro N-[4-(2-hydroxy-5-methyl-benzoylamino)-cyclohexyl]-2-(3-methylsulfanyl-phenoxy)-nicotinamide] | 9.40 |
| Syn-5-fluoro-N-[4-(4-hydroxy-2-methoxy-benzoylamino)-cyclohexyl]-2-(3-methylsulfanyl-phenoxy)-nicotinamide [Example 22] | 10.15 |
| Syn-5-fluoro-N-[4-(2-hydroxy-benzoylamino)-cyclohexyl]-2-(3-methylsulfanyl-phenoxy)-nicotinamide [Example 11] | 10.30 |
| Syn-5-fluoro-2-(3-methylsulfanyl-phenoxy)-N-{4-[(2,3-dimethyl-1H-pyrazole-5-carbonyl)-amino]-cyclohexyl}-nicotinamide [Example 3] | 9.43 |
| Syn-5-fluoro-N-{4-[(4-methyl-1H-imidazole-2-carbonyl)-amino]-cyclohexyl}-2-(3-methylsulfanyl-phenoxy)-nicotinamide [Example 4] | 9.82 |

test system: not given; assay: not given; conditions: not given

| melting point [°C] | Molecule |
| --- | --- |
| 123 to 126 | CSc1cccc(Oc2ncc(F)cc2C(=O)N[C@H]2CC[C@@H](CO)CC2)c1 [Example 60, 5-Fluoro-N-(cis-4-hydroxymethyl-cyclohexyl)-2-(3-methylsulfanyl-phenoxy)-nicotinamide] |
| 99 to 101 | CSc1cccc(Oc2ncc(F)cc2C(=O)N[C@H]2CCCC[C@H]2O)c1 (relative stereo) [Example 31, 5-Fluoro-N-[cis-2-hydroxy-cyclohexyl]-2-(3-methylsulfanyl-phenoxy)-nicotinamide] |
| 128 to 129 | CSc1cccc(Oc2ncc(F)cc2C(=O)N[C@H]2CCCC[C@@H]2CO)c1 (relative stereo) [Example 56, 5-Fluoro-N-[trans-2-hydroxymethyl-cyclohexyl]-2-(3-methylsulfanyl-phenoxy)-nicotinamide] |
